Assay results published in US20120177693A1, “DEEP LUNG PULMONARY DELIVERY OF TREPROSTINIL” (Aradigm Corporation, priority 2008, published 2012).

Assay: Venous plasma pharmacokinetics of inhaled treprostinil via AERx Essence or Nebu-Tec Optineb, 14 healthy male subjects
Details: for Dose-normalised AUCI / Dose-normalised AUCT / Dose-normalised Cmax: dose-normalised for the calculated dose to lung (μg); for AUCINF_obs_D (dose normalised AUCI) / AUClast_D (dose normalised AUCT) / Cmax_D (dose normalised Cmax): normalised for dose to lung
Description: On each of two dosing days, eligible subjects underwent dosing with ^99mTc-labeled treprostinil sodium using either the AERx Essence System or the Nebu-Tec Optineb nebulizer. Following their initial study dose, subjects underwent a washout period of approximately 48 hours before completing a second (crossover) study dose.
Immediately following each study dose, subjects underwent gamma scintigraphy and multiple samplings of venous blood to characterize treprostinil lung deposition and plasma pharmacokinetics.
To evaluate treprostinil plasma pharmacokinetics, 16 venous blood samples were drawn into 7.5 ml Potassium EDTA monovette tubes following each study dose (i.e., Essence and Optineb). Sampling occurred approximately 1 hour prior to dosing and at +2, +3, +5, +7, +10, +15, +20, +30, +60, +90, +120, +180, +240, +300, and +360 minutes after the start of each study dose. Thus, a total of 32 blood samples (˜250 mL) were collected for pharmacokinetic assessment over the two dosing days. Immediately upon sampling the sample was identified with a bar coded label bearing details of study number, subject number, sampling time point, sample type and a unique 9 digit identification number. The sample was separated by centrifugation at 1500×g and 4° C. for 10 minutes. Two equal aliquots of plasma/serum were transferred to 2 polypropylene tubes labelled identically to the original blood sample and stored at approximately −20° C. pending analysis. The time at which samples were taken, received into the separating room and placed in the freezer was recorded in the study documentation.
The pharmacokinetic parameters Cmax, AUCT and AUCI were normalised for the dose delivered to the lung, as determined from the scintigraphy data (Tables 14.2.1.5 & 14.2.1.6).

[1] = dose-normalised for the calculated dose to lung
[2] = via Nebu-Tec, Geometric LS means

CCCCC[C@H](O)CC[C@@H]1[C@H]2Cc3cccc(OCC(=O)[O-])c3C[C@H]2C[C@H]1O.[Na+] [treprostinil, (1R,2R,3aS,9aS)-[[2,3,3a,4,9,9a-Hexahydro-2-hydroxyl-1-[(3S)-3-hydroxyoctyl]-1H-benz[f]inden-5-yl]oxy]acetic acid monosodium salt]
Tmax, Median Diff. AERx vs Nebu-Tec (Wilcoxon Matched Pairs Test): 11.5 min
Dose-normalised AUCI, AERx/Nebu-Tec Ratio of geometric LS means [1]: 101.79%
Dose-normalised AUCT, AERx/Nebu-Tec Ratio of geometric LS means [1]: 103.24%
Dose-normalised Cmax, AERx/Nebu-Tec Ratio of geometric LS means (dose-normalised for the calculated dose to lung, monosodium salt): 61.51%
Tmax (human, plasma, inhaled, Tmax, one subject in the nebulizer arm with delayed Tmax): ~20 min
AUC (male, human, plasma, inhaled, 19.58 μg): 0.53 ng·h/mL
AUC(0-inf) (male, human, plasma, inhaled, 19.58 μg, AUCINF—obs, via Optineb, GM): 0.533 ng·h/mL
AUC(0-inf) (male, human, plasma, inhaled, 19.58 μg, AUCINF—obs, via Optineb, Median): 0.546 ng·h/mL
AUC(0-t) (male, human, plasma, inhaled, 19.58 μg, AUCT, via Nebu-Tec, Geometric LS means): 0.51 ng·h/mL
AUC(0-t) (male, human, plasma, inhaled, 19.58 μg, AUClast, via Optineb, GM): 0.51 ng·h/mL
AUC(0-t) (male, human, plasma, inhaled, 19.58 μg, AUClast, via Optineb, Median): 0.531 ng·h/mL
Cmax (male, human, plasma, inhaled, 19.58 μg, Cmax, via Nebu-Tec, Geometric LS means): 0.71 ng/mL
Cmax (male, human, plasma, inhaled, 19.58 μg, Cmax, via Optineb, GM (geometric mean)): 0.707 ng/mL
Cmax (male, human, plasma, inhaled, 19.58 μg, Cmax, via Optineb, Median): 0.696 ng/mL
half-life (male, human, plasma, inhaled, 19.58 μg, T1/2, via Optineb, GM): 38.5 min
half-life (male, human, plasma, inhaled, 19.58 μg, T1/2, via Optineb, Median): 37.3 min
Tmax (male, human, plasma, inhaled, 19.58 μg, Tmax, via Nebu-Tec, Median): 8.5 min
Tmax (male, human, plasma, inhaled, 19.58 μg, Tmax, via Optineb, Median): 8.52 min
AUC(0-inf) (male, human, plasma, inhaled, 26 μg, AUCINF—obs, via AERx, GM): 0.731 ng·h/mL
AUC(0-inf) (male, human, plasma, inhaled, 26 μg, AUCINF—obs, via AERx, Median): 0.767 ng·h/mL
AUC(0-t) (male, human, plasma, inhaled, 26 μg, AUClast, via AERx, GM): 0.709 ng·h/mL
AUC(0-t) (male, human, plasma, inhaled, 26 μg, AUClast, via AERx, Median): 0.749 ng·h/mL
Cmax (male, human, plasma, inhaled, 26 μg, Cmax, via AERx, GM (geometric mean)): 0.586 ng/mL
Cmax (male, human, plasma, inhaled, 26 μg, Cmax, via AERx, Median): 0.548 ng/mL
half-life (male, human, plasma, inhaled, 26 μg, T1/2, via AERx, GM): 46.3 min
half-life (male, human, plasma, inhaled, 26 μg, T1/2, via AERx, Median): 43.6 min
Tmax (male, human, plasma, inhaled, 26 μg, Tmax, via AERx, Median): 25 min
AUC (male, human, plasma, inhaled, 26.07 μg): 0.73 ng·h/mL
AUC(0-t) (male, human, plasma, inhaled, 26.07 μg, AUCT, via AERx, Geometric LS means): 0.71 ng·h/mL
Cmax (male, human, plasma, inhaled, 26.07 μg, Cmax, via AERx, Geometric LS means): 0.59 ng/mL
Tmax (male, human, plasma, inhaled, 26.07 μg, Tmax, via AERx, Median): 25 min
Vd/F (male, human, plasma, inhaled, 2 AERx strips): 44 L
AUC(0-inf) (male, human, plasma, inhaled, 2 AERx strips, AUCINF—obs (AUCI), via AERx, Mean): 0.762 ng·h/mL
AUC(0-t) (male, human, plasma, inhaled, 2 AERx strips, AUClast (AUCT), via AERx, Mean): 0.742 ng·h/mL
Cmax (male, human, plasma, inhaled, 2 AERx strips, Cmax, via AERx, Mean): 0.64 ng/mL
half-life (male, human, plasma, inhaled, 2 AERx strips, T1/2 (elimination half life), via AERx, Mean): 52.2 min
Tmax (male, human, plasma, inhaled, 2 AERx strips, Tmax, via AERx, Mean): 20.6 min
Vd/F (male, human, plasma, inhaled, 6 puffs): 36 L
AUC(0-inf) (male, human, plasma, inhaled, 6 puffs, AUCINF—obs (AUCI), via Optineb, Mean): 0.553 ng·h/mL
AUC(0-t) (male, human, plasma, inhaled, 6 puffs, AUClast (AUCT), via Optineb, Mean): 0.531 ng·h/mL
Cmax (male, human, plasma, inhaled, 6 puffs, Cmax, via Optineb, Mean): 0.762 ng/mL
half-life (male, human, plasma, inhaled, 6 puffs, T1/2 (elimination half life), via Optineb, Mean): 40.1 min
Tmax (male, human, plasma, inhaled, 6 puffs, Tmax, via Optineb, Mean): 8.94 min
Tmax (male, human, plasma, inhaled, TMAX, via AERx Essence System, mean): 21 min
Tmax (male, human, plasma, inhaled, TMAX, via nebulizer (Nebu-Tec OPTINEB), mean): 9 min
AUCI, AERx/Nebu-Tec Ratio of geometric LS means (not dose adjusted): 137.15%
AUCT, AERx/Nebu-Tec Ratio of geometric LS means (not dose adjusted): 139.11%
Cmax, AERx/Nebu-Tec Ratio of geometric LS means (not dose adjusted): 82.88%
Cmax_D (via AERx, GM): 0.023 ng/mL/µg
Vz_F_obs (via AERx, GM): 38614.996 mL
Dose-normalised AUCI (via AERx, Geometric LS means): 0.029 ng·h/mL
Dose-normalised AUCT (via AERx, Geometric LS means): 0.028 ng·h/mL
Dose-normalised Cmax (via AERx, Geometric LS means): 0.023 ng/mL
AUCINF—obs (via AERx, Max): 1.205 ng·h/mL
AUClast (via AERx, Max): 1.196 ng·h/mL
Cmax (via AERx, Max): 1.347 ng/mL
Cmax_D (via AERx, Max): 0.044 ng/mL/µg
T1/2 (via AERx, Max): 163.9 min
Tmax (via AERx, Max): 30 min
Vz_F_obs (via AERx, Max): 133550.416 mL
AUCINF_obs_D (dose normalised AUCI) (via AERx, Mean): 0.029 ng·h/mL/µg
AUClast_D (dose normalised AUCT) (via AERx, Mean): 0.028 ng·h/mL/µg
Cmax_D (dose normalised Cmax) (via AERx, Mean): 0.024 ng/mL/µg
Cmax_D (via AERx, Median): 0.022 ng/mL/µg
Vz_F_obs (via AERx, Median): 34319.392 mL
AUCINF—obs (via AERx, Min): 0.407 ng·h/mL
AUClast (via AERx, Min): 0.375 ng·h/mL
Cmax (via AERx, Min): 0.299 ng/mL
Cmax_D (via AERx, Min): 0.016 ng/mL/µg
T1/2 (via AERx, Min): 28.3 min
Tmax (via AERx, Min): 7.02 min
Vz_F_obs (via AERx, Min): 21692.705 mL
Dose-normalised AUCI [2]: 0.028 ng·h/mL
Dose-normalised AUCT [2]: 0.027 ng·h/mL
Dose-normalised Cmax [2]: 0.037 ng/mL
Cmax_D (via Optineb, GM): 0.037 ng/mL/µg
Vz_F_obs (via Optineb, GM): 32721.114 mL
AUCINF—obs (via Optineb, Max): 0.852 ng·h/mL
AUClast (via Optineb, Max): 0.816 ng·h/mL
Cmax (via Optineb, Max): 1.559 ng/mL
Cmax_D (via Optineb, Max): 0.069 ng/mL/µg
T1/2 (via Optineb, Max): 66.42 min
Tmax (via Optineb, Max): 20 min
Vz_F_obs (via Optineb, Max): 92051.057 mL
AUCINF_obs_D (dose normalised AUCI) (via Optineb, Mean): 0.030 ng·h/mL/µg
AUClast_D (dose normalised AUCT) (via Optineb, Mean): 0.029 ng·h/mL/µg
Cmax_D (dose normalised Cmax) (via Optineb, Mean): 0.041 ng/mL/µg
Cmax_D (via Optineb, Median): 0.037 ng/mL/µg
Vz_F_obs (via Optineb, Median): 32525.036 mL
AUCINF—obs (via Optineb, Min): 0.360 ng·h/mL
AUClast (via Optineb, Min): 0.315 ng·h/mL
Cmax (via Optineb, Min): 0.312 ng/mL
Cmax_D (via Optineb, Min): 0.017 ng/mL/µg
T1/2 (via Optineb, Min): 25.6 min
Tmax (via Optineb, Min): 4.98 min
Vz_F_obs (via Optineb, Min): 16866.083 mL
